test system: Prostate cancer cells 22RV1; experiment: Experiment on inhibiting 22RV1 cell proliferation (CellTiter-Glo, 7 days); format: cell-based; conditions: Homo sapiens, 168 h, 22RV1 cells, 7 days incubation, cells with nM printed beside the value, read-out: IC50 values for inhibition of 22RVI cells
Protocol: Prostate cancer cells 22RV1 were purchased from ATCC, the cell medium was RPMI 1640+10% FBS, and the cells were cultured in an incubator at 37° C. under 5% CO2. On day 1, the cells in the exponential growth phase were collected. With a 1% css-FBS phenol red-free medium, the cell suspension was adjusted to a corresponding concentration, plated at 2000 cells/well and incubated overnight. On day 2, compounds at different concentrations were added, and the plate was placed in the incubator and incubated for further 7 days. After the incubation was completed, according to operation instructions for a CellTiter-Glo kit (Promega, G7573), 50 μL of CellTiter-Glo reagents, which were already pre-melted and equilibrated to room temperature, were added to each well, and the mixtures were uniformly mixed for 2 min using a microplate shaker. The plate was placed at room temperature for 10 min. and then […] signal values were measured using a microplate reader (PHERAstar FSX). The results were processed according to formula (I), the inhibition rate of the compound at different concentrations was calculated, and the IC50 value of the compound with an inhibition rate of 50% was calculated using origin9.2 software with DoseResp function, wherein RLUcompound was the readout of the treated group, and RLUcontrol was the average value of the DMSO vehicle control group.

| IC50 [nM] | SMILES |
| --- | --- |
| < 100 | CC#Cc1cc(C(F)(F)F)ccc1NC(=O)C(C)(C)n1nc(C)c(C#CC2CN(c3ccc4c(c3)C(=O)N(C3CCC(=O)NC3=O)C4=O)C2)c1C (stereo not drawn) [Compound 192, 2-(4-((1-(2-(2,6-dioxopiperidin-3-yl)-1,3-dioxoisoindolin-5-yl)azetidin-3-yl)ethynyl)-3,5-dimethyl-1H-pyrazol-1-yl)-2-methyl-N-(2-(prop-1-yn-1-yl)-4-(trifluoromethyl)phenyl) propanamide] |
| < 50 | Cc1c(C#N)ccc(NC(=O)C(C)(C)n2cc(C#CC3CN(c4ccc5c(c4)C(=O)N(C4CCC(=O)NC4=O)C5=O)C3)cn2)c1C (stereo not drawn) [Compound 152, N-(4-cyano-2,3-dimethylphenyl)-2-(4-((1-(2-(2,6-dioxopiperidin-3-yl)-1,3-dioxoisoindolin-5-yl)azetidin-3-yl)ethynyl)-1H-pyrazol-1-yl)-2-methylpropanamide] |
| < 100 | [2H]C([2H])([2H])C(C(=O)Nc1ccc(C#N)cc1C1CC1)(n1cc(C#CC2CN(c3ccc4c(c3)C(=O)N(C3CCC(=O)NC3=O)C4=O)C2)cn1)C([2H])([2H])[2H] (stereo not drawn) [Compound 186, N-(4-cyano-2-cyclopropylphenyl)-2-(4-((1-(2-(2,6-dioxopiperidin-3-yl)-1,3-dioxoisoindolin-S-yl)azetidin-3-yl)ethynyl)-1H-pyrazol-1-yl)-2,2-(dimethyl-d6) acetamide] |

Second part, the molecule before the results:

| SMILES | IC50 [nM] |
| --- | --- |
| CC(C)(C(=O)Nc1ccc(C(F)(F)F)cc1C#CC1CC1)n1cc(C#CC2CN(c3ccc4c(c3)C(=O)N(C3CCC(=O)NC3=O)C4=O)C2)cn1 (stereo not drawn) [Compound 116, N-(2-(cyclopropylethynyl)-4-(trifluoromethyl)phenyl)-2-(4-((1-(2-(2,6-dioxopiperidin-3-yl)-1,3-dioxoisoindolin-5-yl)azetidin-3-yl)ethynyl)-1H-pyrazol-1-yl)-2-methylpropanamide] | < 50 |
| CC(C(=O)Nc1ccc(C#N)c(C(F)(F)F)c1)n1cc(C#CC2CN(c3ccc4c(c3)C(=O)N(C3CCC(=O)NC3=O)C4=O)C2)cn1 (stereo not drawn) [Compound 77, N-(4-cyano-3-(trifluoromethyl)phenyl)-2-(4-((1-(2-(2,6-dioxopiperidin-3-yl)-1,3-dioxoisoindolin-5-yl)azetidin-3-yl)ethynyl)-1H-pyrazol-1-yl) propanamide] | < 50 |
| CCC(CC)(C(=O)Nc1ccc(C#N)c(C(F)(F)F)c1)n1cc(C#CC2CN(c3ccc4c(c3)C(=O)N(C3CCC(=O)NC3=O)C4=O)C2)cn1 (stereo not drawn) [Compound 41, N-(4-cyano-3-(trifluoromethyl)phenyl)-2-(4-((1-(2-(2,6-dioxopiperidin-3-yl)-1,3-dioxoisoindolin-5-yl)azetidin-3-yl)ethynyl)-1H-pyrazol-1-yl)-2-ethylbutanamide] | < 50 |

same assay, conditions: Homo sapiens, 168 h, 22RV1 cells, 7 days incubation, cells without a unit of their own (μM), read-out: IC50 values for inhibition of 22RVI cells

| IC50 [nM] | SMILES |
| --- | --- |
| < 1000 | O=C1CCC(N2C(=O)c3ccc(N4CC5CC(CN6CCC(c7cnn(C8(C(=O)Nc9ccc(C(F)(F)F)cc9Cl)CCC8)c7)CC6)CC5C4)cc3C2=O)C(=O)N1 (stereo not drawn) [Compound 91, N-(2-chloro-4-(trifluoromethyl)phenyl)-1-(4-(1-((2-(2-(2,6-dioxopiperidin-3-yl)-1,3-dioxoisoindolin-5-yl)octahydrocyclopenta[c]pyrrol-5-yl)methyl)piperidin-4-yl)-1H-pyrazol-1-yl)cyclobutane-1-carboxamide] |
| < 1000 | O=C1CCC(N2C(=O)c3ccc(N4CC(N5Cc6cn(C7(C(=O)Nc8ccc(C(F)(F)F)cc8Cl)CCC7)nc6C5)C4)cc3C2=O)C(=O)N1 (stereo not drawn) [Compound 197, N-(2-chloro-4-(trifluoromethyl)phenyl)-1-(5-(1-(2-(2,6-dioxopiperidin-3-yl)-1,3-dioxoisoindolin-5-yl)azetidin-3-yl)-5,6-dihydropyrrolo[3,4-c]pyrazol-2 (4H)-yl)cyclobutane-1-carboxamide] |
| < 1000 | Cc1ccc(NC(=O)C(C)(C)n2cc(C#CC3CN(c4ccc5c(c4)C(=O)N(C4CCC(=O)NC4=O)C5=O)C3)cn2)cc1Cl (stereo not drawn) [Compound 18, N-(3-chloro-4-methylphenyl)-2-(4-((1-(2-(2,6-dioxopiperidin-3-yl)-1,3-dioxoisoindolin-5-yl)azetidin-3-yl)ethynyl)-1H-pyrazol-1-yl)-2-methylpropanamide] |

— US20250171417A1, “HETEROCYCLIC DERIVATIVE, AND COMPOSITION AND PHARMACEUTICAL USE THEREOF” (Xizang Haisco Pharmaceutical Co., Ltd., priority 2021, published 2025)
